Data reported in ChEMBL document CHEMBL4371004, “A-C Estrogens as Potent and Selective Estrogen Receptor-Beta Agonists (SERBAs) to Enhance Memory Consolidation under Low-Estrogen Conditions” (J Med Chem, 2018).
Activity calls are given as the source filed them. The calls are words filed in the database; no cut-off is given here.

How the values were obtained:
[1] = molecular target: T1, Mineralocorticoid receptor (Homo sapiens) (UniProt P08235); assay: Agonist activity at GAL4 DNA binding domain fused mineralocorticoid receptor ligand binding domain (unknown origin) at 0.25 to 25 uM by FRET-based assay
T1 sequence (whole entry): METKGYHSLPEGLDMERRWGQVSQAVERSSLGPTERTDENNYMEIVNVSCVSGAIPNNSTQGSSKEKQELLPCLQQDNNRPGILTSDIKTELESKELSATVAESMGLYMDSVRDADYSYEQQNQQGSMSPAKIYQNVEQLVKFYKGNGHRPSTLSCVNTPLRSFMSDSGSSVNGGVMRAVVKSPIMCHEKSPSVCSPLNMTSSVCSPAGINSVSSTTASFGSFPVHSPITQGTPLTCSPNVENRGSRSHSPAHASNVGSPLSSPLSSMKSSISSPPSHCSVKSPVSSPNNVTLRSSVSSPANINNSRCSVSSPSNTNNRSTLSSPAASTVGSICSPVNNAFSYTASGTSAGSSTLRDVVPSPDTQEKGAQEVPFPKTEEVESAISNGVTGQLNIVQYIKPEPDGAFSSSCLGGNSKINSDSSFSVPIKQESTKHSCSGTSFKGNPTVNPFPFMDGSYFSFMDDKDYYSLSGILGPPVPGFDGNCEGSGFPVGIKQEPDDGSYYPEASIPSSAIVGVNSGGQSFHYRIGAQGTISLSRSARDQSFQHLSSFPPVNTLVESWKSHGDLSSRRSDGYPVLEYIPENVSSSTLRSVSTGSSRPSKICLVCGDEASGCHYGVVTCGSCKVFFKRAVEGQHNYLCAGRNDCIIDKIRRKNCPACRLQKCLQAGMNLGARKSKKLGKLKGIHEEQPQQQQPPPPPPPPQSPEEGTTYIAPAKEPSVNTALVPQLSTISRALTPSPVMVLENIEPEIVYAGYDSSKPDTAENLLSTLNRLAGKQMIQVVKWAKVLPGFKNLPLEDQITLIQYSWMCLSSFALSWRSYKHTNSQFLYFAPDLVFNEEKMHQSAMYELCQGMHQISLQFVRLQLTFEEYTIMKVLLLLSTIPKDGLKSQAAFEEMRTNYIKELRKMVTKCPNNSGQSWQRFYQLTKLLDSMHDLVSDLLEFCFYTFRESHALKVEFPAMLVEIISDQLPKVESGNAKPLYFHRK

[2] = molecular target: T2, Thyroid hormone receptor beta (Homo sapiens) (UniProt P10828); assay: Agonist activity at GAL4 DNA binding domain fused thyroid hormone receptor beta (unknown origin) at 0.25 to 25 uM by FRET-based assay
T2 sequence (whole entry): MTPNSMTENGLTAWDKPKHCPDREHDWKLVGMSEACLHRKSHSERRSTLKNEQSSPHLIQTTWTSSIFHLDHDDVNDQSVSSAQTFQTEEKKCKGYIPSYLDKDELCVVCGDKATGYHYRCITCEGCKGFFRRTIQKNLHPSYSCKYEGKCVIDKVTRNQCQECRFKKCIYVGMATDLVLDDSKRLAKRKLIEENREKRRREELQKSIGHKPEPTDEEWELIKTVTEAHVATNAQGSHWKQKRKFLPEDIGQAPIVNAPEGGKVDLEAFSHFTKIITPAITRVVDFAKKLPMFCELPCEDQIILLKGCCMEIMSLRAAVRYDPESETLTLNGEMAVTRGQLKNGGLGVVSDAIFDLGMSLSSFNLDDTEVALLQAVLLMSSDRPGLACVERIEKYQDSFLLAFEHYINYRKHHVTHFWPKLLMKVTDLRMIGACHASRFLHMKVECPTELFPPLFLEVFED

[3] = molecular target: T3, Vitamin D3 receptor (Homo sapiens) (UniProt P11473); assay: Agonist activity at GAL4 DNA binding domain fused VDR ligand binding domain (unknown origin) at 0.25 to 25 uM by FRET-based assay
T3 sequence (whole entry): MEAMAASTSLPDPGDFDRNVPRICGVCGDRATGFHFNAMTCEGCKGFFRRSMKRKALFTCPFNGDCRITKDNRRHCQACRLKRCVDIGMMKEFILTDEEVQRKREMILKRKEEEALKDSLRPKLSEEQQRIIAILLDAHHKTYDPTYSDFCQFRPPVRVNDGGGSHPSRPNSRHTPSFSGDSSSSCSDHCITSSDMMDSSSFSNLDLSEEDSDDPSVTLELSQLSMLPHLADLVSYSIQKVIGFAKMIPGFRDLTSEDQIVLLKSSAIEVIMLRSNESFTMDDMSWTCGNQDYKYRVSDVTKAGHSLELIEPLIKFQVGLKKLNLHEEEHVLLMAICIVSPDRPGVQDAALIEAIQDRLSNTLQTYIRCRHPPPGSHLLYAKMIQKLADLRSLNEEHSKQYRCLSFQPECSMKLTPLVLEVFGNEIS

Cytochrome P450 2D6 = Cytochrome P450 2D6 (Homo sapiens, UniProt P10635); assay: Inhibition of human recombinant CYP2D6 up to 100 uM preincubated for 10 mins followed by NADPH addition and measured after 10 to 30 mins by P450-Glo luminescence assay; format: ADME; settings: recombinant enzyme
Mus musculus [4] = assay: Memory enhancement effect in C57BL/6 mouse assessed as time spent with moved object at 1 ng administered as dorsal hippocampal infusion by novel object recognition test; format: functional
Mus musculus [5] = assay: Memory enhancement effect in C57BL/6 mouse assessed as time spent with moved object at 0.5 mg/kg, po administered via gavage by object recognition test; format: functional
Mus musculus [6] = assay: Memory enhancement effect in C57BL/6 mouse assessed as time spent with novel object at 5 mg/kg, po administered via gavage by novel object recognition test; format: functional
Estrogen receptor [7] = molecular target: T4, Estrogen receptor (Homo sapiens, UniProt P03372)
T4 sequence (P03372 whole entry): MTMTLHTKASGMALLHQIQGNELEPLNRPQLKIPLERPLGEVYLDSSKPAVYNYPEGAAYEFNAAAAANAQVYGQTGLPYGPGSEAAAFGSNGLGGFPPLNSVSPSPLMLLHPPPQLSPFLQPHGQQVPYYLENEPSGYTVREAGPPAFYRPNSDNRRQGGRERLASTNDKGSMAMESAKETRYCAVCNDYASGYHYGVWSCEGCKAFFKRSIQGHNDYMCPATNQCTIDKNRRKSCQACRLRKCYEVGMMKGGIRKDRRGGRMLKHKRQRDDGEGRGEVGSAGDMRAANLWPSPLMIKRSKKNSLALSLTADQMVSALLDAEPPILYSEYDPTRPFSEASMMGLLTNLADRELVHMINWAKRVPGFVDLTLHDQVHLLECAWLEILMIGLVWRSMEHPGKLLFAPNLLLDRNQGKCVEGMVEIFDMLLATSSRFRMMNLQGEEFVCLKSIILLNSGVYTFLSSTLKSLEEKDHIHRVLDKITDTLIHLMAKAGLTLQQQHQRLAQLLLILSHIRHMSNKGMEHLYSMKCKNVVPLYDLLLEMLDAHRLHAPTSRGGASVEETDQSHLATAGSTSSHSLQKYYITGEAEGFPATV
Description: Agonist activity at estrogen receptor alpha (unknown origin) after 22 hrs by cell-based luciferase reporter gene assay

Cytochrome P450 2C9 = Cytochrome P450 2C9 (Homo sapiens, UniProt P11712)
Description: Inhibition of human recombinant CYP2C9 preincubated for 10 mins followed by NADPH addition and measured after 10 to 30 mins by P450-Glo luminescence assay

Estrogen receptor [8] = molecular target: T4, Estrogen receptor; assay: cell-based
Description: Agonist activity at GAL4 DNA binding domain fused full-length chimeric estrogen receptor alpha (unknown origin) by FRET-based assay

Chain of Cytochrome P450 2D6 (P10635 whole entry, the tested form may be a part): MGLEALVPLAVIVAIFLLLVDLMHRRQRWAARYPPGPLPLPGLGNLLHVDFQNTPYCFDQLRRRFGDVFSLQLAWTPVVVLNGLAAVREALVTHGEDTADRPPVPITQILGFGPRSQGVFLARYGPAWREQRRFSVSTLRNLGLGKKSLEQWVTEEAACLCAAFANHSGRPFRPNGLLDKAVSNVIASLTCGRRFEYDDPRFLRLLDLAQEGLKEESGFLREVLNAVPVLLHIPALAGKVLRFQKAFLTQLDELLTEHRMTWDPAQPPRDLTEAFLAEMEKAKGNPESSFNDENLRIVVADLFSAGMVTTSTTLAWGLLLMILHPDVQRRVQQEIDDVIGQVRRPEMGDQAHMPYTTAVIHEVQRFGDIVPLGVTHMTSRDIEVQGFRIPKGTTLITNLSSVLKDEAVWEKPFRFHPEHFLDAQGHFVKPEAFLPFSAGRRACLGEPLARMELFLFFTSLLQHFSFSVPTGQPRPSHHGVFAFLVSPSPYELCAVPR
Chain of Cytochrome P450 2C9 (P11712 whole entry): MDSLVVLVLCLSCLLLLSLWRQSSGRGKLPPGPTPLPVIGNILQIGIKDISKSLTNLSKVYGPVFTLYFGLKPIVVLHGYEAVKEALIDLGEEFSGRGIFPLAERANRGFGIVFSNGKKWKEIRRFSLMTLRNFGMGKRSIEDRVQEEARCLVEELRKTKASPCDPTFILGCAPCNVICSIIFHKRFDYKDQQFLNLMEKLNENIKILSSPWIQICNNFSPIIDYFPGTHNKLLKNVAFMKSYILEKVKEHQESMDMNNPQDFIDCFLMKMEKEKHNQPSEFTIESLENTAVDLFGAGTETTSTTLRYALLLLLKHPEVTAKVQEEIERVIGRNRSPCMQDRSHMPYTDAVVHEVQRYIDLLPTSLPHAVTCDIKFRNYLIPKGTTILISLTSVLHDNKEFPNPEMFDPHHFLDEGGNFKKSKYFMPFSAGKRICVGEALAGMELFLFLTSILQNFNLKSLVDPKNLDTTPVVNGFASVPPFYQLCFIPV

OC[C@H]1CC[C@H](c2ccc(O)cc2)CC1
Activity [1]: inactive | Activity [2]: inactive | Activity [3]: inactive | inhibition (INH) (Cytochrome P450 2D6): Not Active | Time (Mus musculus [4]): 3.4 s | Time (Mus musculus [5]): 3.65 s | Time (Mus musculus [6]): 2.36 s | EC50 (Estrogen receptor [7]): 20.4 µM | EC50 (Cytochrome P450 2C9): 34 µM | EC50 (Estrogen receptor [8]): 0.93 µM
